Experimental data from paper PMC4488699, “Proteasome as a Molecular Target of Microcystin-LR” (Toxins, 2015).
Like-named read-outs stand apart in the source and are kept apart here. Numbered stars: 1 amine (or outer) side, 2 acyl side, 3 side chain; on linkers, the order of the positions; unused ones are H or OH. Bridge positions count the residues as written; N and C are the ends. Square brackets hold non-standard residues; d marks the D form. Peptide text beside a SMILES is read from it. * marks the point of attachment. Adda = CO[C@@H](Cc1ccccc1)[C@@H](C)/C=C(C)/C=C/[C@H](N[*:1])[C@H](C)C(=O)[*:2]; dAsp(3S-Me) = C[C@H](C(=O)[*:3])[C@@H](N[*:1])C(=O)[*:2]; d(γGlu) = O=C(O)[C@@H](CCC(=O)[*:2])N[*:1]; Cbz = O=C(OCc1ccccc1)*; NMeDha = C=C(NC)C(=O)O

How the values were obtained:
[1] = tested on: PC-3-GFP^u cells; format: cell-based
[2] = tested on: proteasome TL activity in PC-3-GFP^u whole cell extracts; format: cell-based
[3] = tested on: proteasome PGPH activity in PC-3-GFP^u whole cell extracts; format: cell-based
[4] = tested on: proteasome CT activity in PC-3-GFP^u whole cell extracts; format: cell-based
[5] = tested on: proteasome TL activity in the liver of Gobiocypris rarus; details: in vivo
[6] = tested on: protease; details: cited from earlier work
[7] = tested on: serine/threonine protein phosphatases (PPs); details: cited from earlier work
[8] = tested on: animal cells; details: cited from earlier work

Structure (SMILES) | GFP degradation / accumulation of ubiquitinated GFP [1] | inhibition of cellular proteasome TL activity [2] | effect on cellular proteasome PGPH activity [3] | effect on cellular proteasome CT activity [4] | dose dependence of inhibition of proteasome TL activity in the liver [5] | inhibition rate of proteasome TL activity in the liver ([5]; pH 7.4) | degradation by protease [6] | inhibition of serine/threonine protein phosphatases [7] | induction of oxidative stress [8] | GFP degradation / accumulation of ubiquitinated GFP ([1]; MG-132 1 μM (positive control), 24 h, vs DMSO, fluorescence microscopy)
C=C1C(=O)N[C@H](C)C(=O)N[C@@H](CC(C)C)C(=O)N[C@@H](C(=O)O)[C@H](C)C(=O)N[C@@H](CCCNC(=N)N)C(=O)N[C@@H](/C=C/C(C)=C/[C@H](C)[C@H](Cc2ccccc2)OC)[C@H](C)C(=O)N[C@@H](C(=O)O)CCC(=O)N1C [MC-LR, microcystin-LR] (R[Adda][d(γGlu)][NMeDha][dA]L[dAsp(3S-Me)]-OH; lactam N-7) | Ubiquitinated GFP also accumulated | 34% | slightly inhibited | did not evidently change | dose-dependently inhibited | 43% | cannot be degraded by protease | inhibition to serine/threonine protein phosphatases | induce oxidative stress in animal cells | –
CC(C)C[C@@H](C=O)NC(=O)[C@H](CC(C)C)NC(=O)[C@H](CC(C)C)NC(=O)OCc1ccccc1 [MG-132] (Cbz-Leu-Leu-Leu-aldehyde) | – | – | – | – | – | – | – | – | – | GFP degradation was retarded and ubiquitinated GFP accumulated
